Assay results as given in patent US20120258944A1, “ANTIOXIDANTS FOR USE IN THERAPY” (priority 2009, published 2012).

Tests used:
kidney slice = experiment: Organ model TBARS experiment (TBA-MDA assay) in kidney slices
[1] = system: human neutrophils and PBMCs, rat neutrophils and PBMCs, human PLB-985 cell line; experiment: Extracellular ROS, isoluminol luminescence, PMA or fMLF stimulated cells; format: cell-based; conditions: PMA or fMLF 30 ng/ml; compounds 120 to 0 microM; FIG. 1-4, 9-12, 14-17
Description: Validation was performed by stimulating cells with PMA and fMLF. When treated with the antioxidants, altered level of ROS production from the cells was measured using luminometry. Both intracellular and extracellular effect on ROS on the cells was analyzed using isoluminol (extracellular) and luminol (intracellular when co-administered with SOD and catalase) (Dahlgren et al. “Respiratory burst in human neutrophils”, Journal of Immunological Methods 232 1999; 3-14).
The isoluminol reagent buffer was made of HBSS buffer (with Ca^2+), Isoluminol and HRP.
1) Add 25 microL of antioxidants to assay plate to get proper concentrations in a total reaction volume of 100 micro-L. 2) Add 25 microL of PMA (120 ng/ml) and fMLF (120 ng/ml) to assay plate to get concentration of 30 ng/ml in a total reaction volume of 100 microL. 3) Add 50 microL of cell suspension (2 million cells/ml) to each well. Immediately after addition of cell suspension initiate luminescence measurement; the reaction starts at once when the cells are added to the assay plate. Measurement points are taken at 1-minute intervals for 25 minutes. Data is presented as AUC (Area Under Curve) by a summary of all collected measurements for each well.
FIG. 1: Extracellular ROS analyzed by Isoluminol induced luminescence in human Neutrophils. ROS induced with PMA (30 ng/ml) with 200, 100 or 0 microM NAC. Concentrations of compounds 120, 60, 30 and 0 microM final concentrations.
FIG. 9: Extracellular ROS analyzed by Isoluminol induced luminescence in rat Neutrophils. ROS induced with PMA (30 ng/ml) with 200, 100 or 0 microM NAC. Concentrations of compounds 120, 60, 30 and 0 microM final concentrations.
FIG. 11: Extracellular ROS analyzed by Isoluminol induced luminescence in human PLB-985 cell line. ROS induced with PMA (30 ng/ml) with 200, 100 or 0 microM NAC. Concentrations of compounds 120, 60, 30 and 0 microM final concentrations.

[2] = system: human umbilical vein endothelial cells (HUVEC); experiment: Visual evaluation of HUVECs under the microscope (dislodging from the surface); conditions: human, 24 h
Description: Cells were harvested and resuspended in supplemented medium 200 without phenol red. 50 000 cells were added in duplicates to 96-well plates. The compounds were tested on HUVECs according to the following concentrations.
The compounds were diluted in Medium 200 from the 0.1M stock solution. The toxic effects of the compounds were tested after 24 hrs, 48 hrs and 72 hrs.
By visually looking at the cells under the microscope and estimating the dislodging from the surface, the state of the cells was evaluated.

PLB985 cells = experiment: Resazurin based in vitro toxicology assay (TOX8); format: cell-based, human; conditions: PLB985, 3 hours, up to 120 μM
Description: The viability of cells treated with the compounds was also analyzed using a Resazurin based in vitro Toxicology Assay Kit (SigmaAldrich TOX8). Resazurin systems measure the metabolic activity of living cell. Resazurin in its oxidized form (blue) is reduced (red) by living cells and the amount of dye conversion is measured fluorometrically or spectrophotometrically indicating the degree of cytotoxicity.
1) 75 micro-l of PLB985 cells (1 million cells/ml) is mixed with 25 micro-l of Compounds 1, 2, 3 and D (480, 120, 15 and 0.48 micro-M) in a 96 well plate in duplicates. 2) 10 micro-L of Resazurin solution is added to each well and the plate is incubated at 37° C. for 3 hours. 3) Spectrophotometrical analysis is performed in plate reader at 600 and 690 nm.
FIG. 18: Cell viability of compounds in human PLB-985 cell line. Concentrations of compounds 120; 60; 30; 3.75; 0.12 and […] final concentrations. Measurement that indicates cell cytotoxicity (In vitro toxicology assay, TOX-8). The bars show increased level of cytotoxicity (analysis of absorbance of 600 nm substracted with absorbance 690 nm).

human neutrophils = experiment: Luminol enhanced chemiluminescence, total ROS production in neutrophils; format: cell-based
From the text: We investigated the capacity of the material to quench ROS produced by freshly isolated human neutrophils or THP-1 cells (human acute monocytic leukemia cell line) stimulated with PMA (Phorbol Myristate Acetate). The antioxidant capacity of selenide 1 was again compared to those of Trolox, a water soluble derivative of vitamin E, which is commonly used in biological and biochemical applications to reduce oxidative stress or damage.
Neutrophils were isolated from heparinized blood of apparently healthy blood donors (Academic Hospital, Uppsala, Sweden) following a routine dextran sedimentation method essentially as described by Halansson and Venge (Scandinavian Journal of Immunology 1980, 11, 271-282). To each of three test tubes containing 5 ml heparinized blood, dextran (T500, Pharmacia, Uppsala, Sweden) was added (final concentration 1%) and the sedimentation was allowed to proceed for 30 min at room temperature. […] Finally, the pellet was resuspended in Gey's buffer and the average content of neutrophils (approximately 90%) was calculated using Türks staining and hemocytometer method. […]
The generation of oxygen free radicals over time from neutrophils was monitored for 40 minutes in 24 well white optiplates (Greiner) using a Wallac Victor […] in the luminescence mode. […]

[3] = system: MG-63, HEK-293, SHSY-5y, MRC-5 and CaCo-2-cells; experiment: Alamar Blue cell viability/proliferation assay; format: cell-based, human
From the text: Alamar Blue is a non-toxic metabolic indicator for viable cells. Following uptake, the dye becomes reduced and causes a change in the colour of the cell. The colour change correlates reasonably well with the number of living cells in the sample.
Cells w/o antioxidant were used as controls.
Alamar Blue is a non-toxic metabolic indicator for viable cells. Upon uptake into the cell the dye becomes reduced and changes colour. The colour change correlates approximately with the number of living cells in the sample.

Structure (SMILES): CC1Cc2cc(O)ccc2[Se]1 (stereo not drawn) [Compound 1]
- potency as inhibitor of TBARS production compared with references (kidney slice): more potent inhibitors of TBARS production than Trolox and N-acetylcysteine
- concentration able to inhibit 50% of the TBARS formation in the control incubation (kidney slice; re-oxygenation after Argon): sub-micromolar
- antioxidative effect on extracellular ROS [1]: antioxidative effect on extra cellular ROS
- concentration at which cells were affected (visual) [2]: 500 µM
- cytotoxicity (PLB985 cells): no signs of cytotoxicity
- effect on ROS production in neutrophils (human neutrophils; 20, 40, 60 micro-M, FIG. 22): clear, dose dependent, quenching/inhibiting effect
- quenching of ROS from neutrophils compared with Trolox (human neutrophils; 20 micro-M each): considerably more effective than Trolox
- cell growth (Alamar Blue) [3]: normal cell growth patterns
- concentration until which no sign of cell death or decreased proliferation ([3]; human): 235 micro-M
